Results reported in patent US11053235B2, “Substituted 1,4-dihydropyrimidines for the treatment of HBV infection or HBV-induced diseases” (Janssen Sciences Ireland Unlimited Company, priority 2018, dated 2021).
Read-outs that look alike come from different tables or passages of the source.

Columns and labels:
[1] = Cytotoxicity determination in HepG2.2.15 cells (CCK-8); type: cell-based; conditions: human, 6 days treatment, CCK-8, highest concentration 100 uM
Summary of the method: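 CC50 derived from CCK-8 absorbance (450 nm, 630 nm reference) after 2.5 h incubation at 37 °C. Before that, HepG2.2.15 cells (5,000/well, 2% FBS) received an 8-point, 3-fold compound series topping at 100 uM for 6 days, with one mid-treatment medium change.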

[2] = test system: HBV; assay: Anti-viral assay in HepG2.2.15 cells: HBV inhibitory activity (HBV DNA in culture medium by q-PCR); type: cell-based; conditions: Hepatitis B virus, HepG2.2.15, 144 h
Summary of the method: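 HBV DNA released into the medium was measured by q-PCR after 6-day compound exposure of HepG2.2.15 cells (40,000/well, 2% FBS, one mid-course medium change). Eight 3-fold dilutions, highest 10 uM; EC50 derived by curve fitting.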

[3] = HepG2.2.15 cells, 6 days treatment, HBV DNA in culture medium by q-PCR, highest concentration 10 uM, read-out: EC50

SMILES	CC50 at 6 days [1] [nM]	EC50 [2, 3] [nM]	EC50 [2] [nM]
CCOC(=O)C1=C(C2CCN(c3cnc(C(=O)O)cn3)CC2)NC(c2nccs2)=NC1c1ccc(F)c(F)c1Cl (single isomer, unassigned) [II-51-B, 5-(4-(6-(2-Chloro-3,4-difluorophenyl)-5-(ethoxycarbonyl)-2-(thiazol-2-yl)-3,6-dihydropyrimidin-4-yl)piperidin-1-yl)pyrazine-2-carboxylic Acid]	670	< 4.6	–
CCOC(=O)C1=C(C2CCN(c3cc(C(=O)O)nc(OC)n3)CC2)NC(c2nccs2)=NC1c1ccc(F)c(F)c1Cl (single isomer, unassigned) [II-52-B, 6-(4-(6-(2-Chloro-3,4-difluorophenyl)-5-(ethoxycarbonyl)-2-(thiazol-2-yl)-3,6-dihydropyrimidin-4-yl)piperidin-1-yl)-2-methoxypyrimidine-4-carboxylic Acid]	3700	51	–
CCOC(=O)C1=C(C2CCN(c3cc(C(=O)O)nc(C)n3)CC2)NC(c2nccs2)=NC1c1ccc(F)c(F)c1Cl (single isomer, unassigned) [II-53-B, 6-(4-(6-(2-Chloro-3,4-difluorophenyl)-5-(ethoxycarbonyl)-2-(thiazol-2-yl)-3,6-dihydropyrimidin-4-yl)piperidin-1-yl)-2-methylpyrimidine-4-carboxylic Acid]	9050	98	–
CCOC(=O)C1=C(C2CCN(c3cc(C(=O)O)ncn3)CC2)NC(c2nccs2)=NC1c1ccc(F)c(F)c1Cl (single isomer, unassigned) [II-54-B, 6-(4-(6-(2-Chloro-3,4-difluorophenyl)-5-(ethoxycarbonyl)-2-(thiazol-2-yl)-3,6-dihydropyrimidin-4-yl)piperidin-1-yl)pyrimidine-4-carboxylic Acid]	10300	19	–
CCOC(=O)C1=C(C2CCN(c3ncc([C@]4(O)C[C@@H](C(=O)O)C4)cn3)CC2)NC(c2nccs2)=NC1c1ccc(F)c(F)c1Cl (single isomer, unassigned) [II-55-B, (trans)-3-(2-(4-(6-(2-Chloro-3,4-difluorophenyl)-5-(ethoxycarbonyl)-2-(thiazol-2-yl)-3,6-dihydropyrimidin-4-yl)piperidin-1-yl)pyrimidin-5-yl)-3-hydroxycyclobutanecarboxylic Acid]	7960	< 4.6	–
CCOC(=O)C1=C(C2CCN(c3nc(C)c(C)c(C(=O)O)n3)CC2)NC(c2nccs2)=NC1c1ccc(F)c(F)c1Cl (single isomer, unassigned) [II-56-B, 2-(4-(6-(2-Chloro-3,4-difluorophenyl)-5-(ethoxycarbonyl)-2-(thiazol-2-yl)-3,6-dihydropyrimidin-4-yl)piperidin-1-yl)-5,6-dimethylpyrimidine-4-carboxylic Acid]	5540	22	–
CCOC(=O)C1=C(C2CCN(c3nc(OC)cc(C(=O)O)n3)CC2)NC(c2nccs2)=NC1c1ccc(F)c(F)c1Cl (single isomer, unassigned) [II-57-B, 2-(4-(6-(2-chloro-3,4-difluorophenyl)-5-(ethoxycarbonyl)-2-(thiazol-2-yl)-3,6-dihydropyrimidin-4-yl)piperidin-1-yl)-6-methoxypyrimidine-4-carboxylic Acid]	4880	100	–
CCOC(=O)C1=C(C2CCN(c3nc(C)cc(C(=O)O)n3)CC2)NC(c2nccs2)=NC1c1ccc(F)c(F)c1Cl (single isomer, unassigned) [II-58-B, 2-(4-(6-(2-Chloro-3,4-difluorophenyl)-5-(ethoxycarbonyl)-2-(thiazol-2-yl)-3,6-dihydropyrimidin-4-yl)piperidin-1-yl)-6-methylpyrimidine-4-carboxylic Acid]	4800	37	–
CCOC(=O)C1=C(C2CCN(c3ncc(C(C)C)c(C(=O)O)n3)CC2)NC(c2nccs2)=NC1c1ccc(F)c(F)c1Cl (single isomer, unassigned) [II-59-B, 2-(4-(6-(2-Chloro-3,4-difluorophenyl)-5-(ethoxycarbonyl)-2-(thiazol-2-yl)-3,6-dihydropyrimidin-4-yl)piperidin-1-yl)-5-isopropylpyrimidine-4-carboxylic Acid]	8650	13	–
CCOC(=O)C1=C(C2CCN(c3ncc(CC)c(C(=O)O)n3)CC2)NC(c2nccs2)=NC1c1ccc(F)c(F)c1Cl (single isomer, unassigned) [II-60-B, 2-(4-(6-(2-Chloro-3,4-difluorophenyl)-5-(ethoxycarbonyl)-2-(thiazol-2-yl)-3,6-dihydropyrimidin-4-yl)piperidin-1-yl)-5-ethylpyrimidine-4-carboxylic Acid]	8920	5.9	–
CCOC(=O)C1=C(C2CCN(c3ncc(Cl)c(C(=O)O)n3)CC2)NC(c2nccs2)=NC1c1ccc(F)c(F)c1Cl (single isomer, unassigned) [II-61-B, 5-Chloro-2-(4-(6-(2-chloro-3,4-difluorophenyl)-5-(ethoxycarbonyl)-2-(thiazol-2-yl)-3,6-dihydropyrimidin-4-yl)piperidin-1-yl)pyrimidine-4-carboxylic Acid]	6680	9.1	–
CCOC(=O)C1=C(C2CCN(c3ncc(F)c(C(=O)O)n3)CC2)NC(c2nccs2)=NC1c1ccc(F)c(F)c1Cl (single isomer, unassigned) [II-62-B, 2-(4-(6-(2-Chloro-3,4-difluorophenyl)-5-(ethoxycarbonyl)-2-(thiazol-2-yl)-3,6-dihydropyrimidin-4-yl)piperidin-1-yl)-5-fluoropyrimidine-4-carboxylic Acid]	6690	16	–
CCOC(=O)C1=C(C2CCN(c3ncc(C)c(C(=O)O)n3)CC2)NC(c2nccs2)=NC1c1ccc(F)c(F)c1Cl (single isomer, unassigned) [II-63-B, 2-(4-(6-(2-Chloro-3,4-difluorophenyl)-5-(ethoxycarbonyl)-2-(thiazol-2-yl)-3,6-dihydropyrimidin-4-yl)piperidin-1-yl)-5-methylpyrimidine-4-carboxylic Acid]	8280	21	–
CCOC(=O)C1=C(C2CCN(c3nc(C)c(C(=O)O)o3)CC2)NC(c2nccs2)=NC1c1ccc(F)c(F)c1Cl (single isomer, unassigned) [II-64-B, Lithium 2-(4-(6-(2-chloro-3,4-difluorophenyl)-5-(ethoxycarbonyl)-2-(thiazol-2-yl)-3,6-dihydropyrimidin-4-yl)piperidin-1-yl)-4-methyloxazole-5-carboxylate]	6840	–	75
CCOC(=O)C1=C(C2CCN(c3nccc(C(=O)O)n3)CC2)NC(c2nccs2)=NC1c1ccc(F)c(F)c1Cl (single isomer, unassigned) [II-65-B, 2-(4-(6-(2-chloro-3,4-difluorophenyl)-5-(ethoxycarbonyl)-2-(thiazol-2-yl)-3,6-dihydropyrimidin-4-yl)piperidin-1-yl)pyrimidine-4-carboxylic Acid]	6640	4.6	–
CCOC(=O)C1=C(C2CCN(c3ncc(CCC(=O)O)cn3)CC2)NC(c2nccs2)=NC1c1ccc(F)c(F)c1Cl (single isomer, unassigned) [II-66-B, 3-(2-(4-(6-(2-Chloro-3,4-difluorophenyl)-5-(ethoxycarbonyl)-2-(thiazol-2-yl)-3,6-dihydropyrimidin-4-yl)piperidin-1-yl)pyrimidin-5-yl)propanoic Acid]	10900	7.2	–
CCOC(=O)C1=C(C2CCN(c3ncc(C(C)(C)C(=O)O)cn3)CC2)NC(c2nccs2)=NC1c1ccc(F)c(F)c1Cl (single isomer, unassigned) [II-67-B, 2-(2-(4-(6-(2-Chloro-3,4-difluorophenyl)-5-(ethoxycarbonyl)-2-(thiazol-2-yl)-3,6-dihydropyrimidin-4-yl)piperidin-1-yl)pyrimidin-5-yl)-2-methylpropanoic Acid]	2020	12	–
CCOC(=O)C1=C(C2CCN(c3nc(C(=O)O)c(C)o3)CC2)NC(c2nccs2)=NC1c1ccc(F)c(F)c1Cl (single isomer, unassigned) [II-68-B, 2-(4-(6-(2-Chloro-3,4-difluorophenyl)-5-(ethoxycarbonyl)-2-(thiazol-2-yl)-3,6-dihydropyrimidin-4-yl)piperidin-1-yl)5-methyloxazole-4-carboxylic Acid]	8320	16	–
CCOC(=O)C1=C(C2CCN(c3ncc(CC(=O)O)cn3)CC2)NC(c2nccs2)=NC1c1ccc(F)c(F)c1Cl (single isomer, unassigned) [II-69-B, 2-(2-(4-(6-(2-Chloro-3,4-difluorophenyl)-5-(ethoxycarbonyl)-2-(thiazol-2-yl)-3,6-dihydropyrimidin-4-yl)piperidin-1-yl)pyrimidin-5-yl)acetic Acid]	4080	3.1	–
CCOC(=O)C1=C(C2CCN(c3nc(C(=O)O)co3)CC2)NC(c2nccs2)=NC1c1ccc(F)c(F)c1Cl (single isomer, unassigned) [II-70-B, 2-(4-(6-(2-Chloro-3,4-difluorophenyl)-5-(ethoxycarbonyl)-2-(thiazol-2-yl)-3,6-dihydropyrimidin-4-yl)piperidin-1-yl)oxazole-4-carboxylic Acid]	11800	10	–
CCOC(=O)C1=C(C2CCN(c3nc(C)c(C(=O)O)c(C)n3)CC2)NC(c2nccs2)=NC1c1ccc(F)c(F)c1Cl (single isomer, unassigned) [II-71-B, 2-(4-(6-(2-chloro-3,4-difluorophenyl)-5-(ethoxycarbonyl)-2-(thiazol-2-yl)-3,6-dihydropyrimidin-4-yl)piperidin-1-yl)-4,6-dimethylpyrimidine-5-carboxylic Acid]	6330	20	–
